Where two headings read alike, the source gives them in different places.
Columns and labels:
[1] = test system: HCC1954 breast cancer cells; experiment: Payload cell viability dose response (CellTiter-Glo 2.0), HCC1954 (Example 4); type: cell-based, human; conditions: for GI50: Homo sapiens
Description: (§1) Cell viability dose response was determined for exemplary payload compounds in HER2-amplified HCC1954 breast cancer cells and NCI-N87 gastric cancer cells.
(§2) HCC1954 (American Type Culture Collection (ATCC)) breast ductal carcinoma or NCI-N87 (ATCC) gastric carcinoma cells were plated at 500 cells/well in flat bottom 384-well tissue culture plates (Corning) in a total volume of 30 μL tissue culture medium supplemented with 10% fetal bovine serum (ThermoFisher Scientific). Cells were treated with a 4-fold serial dilution of compound from 10000 nM to 0.01 nM. Each concentration was tested in triplicate. At the time of treatment, a plate of untreated cells was evaluated using CellTiter-Glo® 2.0 Luminescent Cell Viability Assay according to the manufacturer's recommendations (Promega; #G9241). CellTiter-Glo® 2.0 reagent was added to the medium, incubated, and assayed on an EnVision Multilabel Reader (PerkinElmer). Values represent time zero (T0). The number of viable cells following 72 (T72) or 144 hours (T144) of compound treatment was also determined using the CellTiter-Glo®2.0 Luminescent Cell Viability Assay. Using the luminescence value at time zero (T0), DMSO control growth (C), and test growth in the presence of compound (T72 or T144), the percentage growth was calculated at each of the compound concentrations levels. Percentage growth inhibition was calculated as (e.g.): [(T144−T0)/(C−T0)]×100 for concentrations for which T144>/=T0 or [(T144−T0)/T0]×100 for concentrations for which T144<T0. The dose response curve plots were generated using Prism 8 (Graphpad) and fit using nonlinear regression analysis and the log(inhibitor) versus response-variable slope (four parameters).

[2] = test system: NCI-N87 gastric cancer cells; experiment: Payload cell viability dose response (CellTiter-Glo 2.0), NCI-N87 (Example 4); type: cell-based, human; conditions: for GI50: Homo sapiens
Description: as §1, §2

[3] = test system: SLC25A19 mature transcript; experiment: In-cell splicing PD assay, HCC1954; type: cell-based; conditions: Homo sapiens, HCC1954, 6 h
Description: (§3) 4.1.2 In-Cell Splicing PD Assay
(§4) Splicing of the SLC25A19 mature transcript was also examined in HCC1954 and NCI-N87 cells treated with increasing concentrations of exemplary payload compounds.
(§5) HCC1954 or NCI-N87 cells (ATCC) were plated in RPM1+10% FBS media (ATCC) at 1000 cells per well at 20 μL per well. Cells were treated with compounds in a 4-fold dilution dose-response. After 6 hours, cells were PBS washed and lysed with 30 μL of CL buffer (IgePal CA-630, 5M NaCl, 1M Tris HCl 1M pH 7.4 in water) containing 25 μL/mL of RNAsin (Promega) and incubated for 20 min at RT on a rocker. Resulting mixture (1 μL) was used to assess splicing modulation in a Taqman Fast Virus 1-Step MasterMix (Applied Biosystems) reverse transcription PCR reaction with the following Taqman primers according to the manufacturer's recommendations: SLC25A19 (Invitrogen, Hs00222265_m1); RPLPO (Invitrogen, Hs99999902_m1).

[4] = test system: SLC25A19 mature transcript; experiment: In-cell splicing PD assay, NCI-N87; type: cell-based; conditions: Homo sapiens, NCI-N87, 6 h
Description: as §3, §4, §5

[5] = HCC1954, 72 h, read-out: CTG 72 h GI50
[6] = HCC1954, 144 h, read-out: CTG 144 h GI50
[7] = NCI-N87, 72 h, read-out: CTG 72 h GI50
[8] = NCI-N87, 144 h, read-out: CTG 144 h GI50

SMILES	CTG 72 h LD50 ([1]; HCC1954, 72 h)	CTG 72 h Rmin ([1]; HCC1954, 72 h)	CTG 144 h LD50 ([1]; HCC1954, 144 h)	CTG 144 h Rm in ([1]; HCC1954, 144 h)	GI50 [1, 5]	GI50 [1, 6]	GI50 [2, 7]	GI50 [2, 8]	CTG 72 h LD50 ([2]; NCI-N87, 72 h)	CTG 72 h Rmin ([2]; NCI-N87, 72 h)	CTG 144 h LD50 ([2]; NCI-N87, 144 h)	CTG 144 h Rmin ([2]; NCI-N87, 144 h)	IC50 [3]	IC50 [4]
CO[C@H]([C@@H](C)[C@H]1O[C@]1(C)C[C@H](C)/C=C/C=C(\C)[C@H]1O[C@@H](CC(=O)NCCCC[C@@H](NC(=O)N2CCN(C)CC2)C(=O)O)CC[C@@H]1C)[C@@H](C)O [Compound H19]	> 10 µM	32.813%	> 10000 nM	27.17%	8990 nM	7930 nM	> 10000 nM	3270 nM	> 10 µM	44.396%	> 10000 nM	17.442%	> 10000 nM	> 10000 nM
CO[C@H]([C@@H](C)[C@H]1O[C@]1(C)C[C@H](C)/C=C/C=C(\C)[C@H]1O[C@@H](CC(=O)N[C@@H](COC(=O)N2CCN(C)CC2)C(=O)O)CC[C@@H]1C)[C@@H](C)O [Compound H13]	> 10 µM	−54.164%	690.614 nM	−97.151%	190 nM	210 nM	53.9 nM	115 nM	> 10 µM	−15.164%	2784.969 nM	−80.613%	320 nM	108 nM
COC(=O)[C@@H](CCCCNC(=O)N1CCN(C)CC1)NC(=O)C[C@H]1CC[C@H](C)[C@@H](/C(C)=C/C=C/[C@@H](C)C[C@@]2(C)O[C@@H]2[C@H](C)[C@@H](OC)[C@@H](C)O)O1 [Compound H21]	> 10 µM	−54.164%	127.893 nM	−97.761%	81.4 nM	50 nM	35.5 nM	40.9 nM	> 10 µM	−7.791%	654.736 nM	−86.347%	157 nM	87.5 nM
CO[C@H]([C@@H](C)[C@H]1O[C@]1(C)C[C@H](C)/C=C/C=C(\C)[C@H]1O[C@@H](CC(=O)N[C@@H](CCCOC(=O)N2CCN(C)CC2)C(=O)O)CC[C@@H]1C)[C@@H](C)O [Compound H17]	> 10 µM	−48.872%	275.218 nM	−96.54%	139 nM	126 nM	47 nM	81.3 nM	> 10 µM	−15.164%	912.895 nM	−65.458%	135 nM	114 nM
COC(=O)[C@@H](CCCCNC(=O)C[C@H]1CC[C@H](C)[C@@H](/C(C)=C/C=C/[C@@H](C)C[C@@]2(C)O[C@@H]2[C@H](C)[C@@H](OC)[C@@H](C)O)O1)NC(=O)N1CCN(C)CC1 [Compound H20]	> 10 µM	−44.802%	98.861 nM	−94.301%	40.4 nM	36.4 nM	29.4 nM	21 nM	> 10 µM	−62.676%	532.734 nM	−94.539%	51.4 nM	56.2 nM
CO[C@H]([C@@H](C)[C@H]1O[C@]1(C)C[C@H](C)/C=C/C=C(\C)[C@H]1O[C@@H](CC(=O)N[C@@H](CCNC(=O)N2CCN(C)CC2)C(=O)O)CC[C@@H]1C)[C@@H](C)O [Compound H15]	> 10 µM	−44.191%	31.77 nM	−95.522%	18.1 nM	11.7 nM	6 nM	3.5 nM	> 10 µM	−18.031%	106.186 nM	−82.661%	37.1 nM	15.4 nM
COC(=O)[C@H](CCNC(=O)N1CCN(C)CC1)NC(=O)C[C@H]1CC[C@H](C)[C@@H](/C(C)=C/C=C/[C@@H](C)C[C@@]2(C)O[C@@H]2[C@H](C)[C@@H](OC)[C@@H](C)O)O1 [Compound H16]	> 10 µM	−65.968%	22.316 nM	−98.779%	11.8 nM	8.98 nM	6.76 nM	3.62 nM	> 10 µM	−21.717%	98.186 nM	−86.757%	16.7 nM	8.55 nM
CO[C@H]([C@@H](C)[C@H]1O[C@]1(C)C[C@H](C)/C=C/C=C(\C)[C@H]1O[C@@H](CC(=O)N[C@H](CCCOC(=O)N2CCN(C)CC2)C(=O)O)CC[C@@H]1C)[C@@H](C)O [Compound H18]	> 10 µM	−20.785%	1606.048 nM	−88.195%	624 nM	436 nM	300 nM	313 nM	> 10 µM	−12.297%	3937.618 nM	−60.543%	1680 nM	464 nM
CO[C@H]([C@@H](C)[C@H]1O[C@]1(C)C[C@H](C)/C=C/C=C(\C)[C@H]1O[C@@H](CC(=O)N[C@@H](CCOC(=O)N2CCN(C)CC2)C(=O)O)CC[C@@H]1C)[C@@H](C)O [Compound H14]	> 10 µM	−42.359%	2055.923 nM	−95.522%	626 nM	682 nM	415 nM	730 nM	> 10 µM	−2.467%	7944.263 nM	−63.41%	1350 nM	962 nM
CO[C@H]([C@@H](C)[C@H]1O[C@]1(C)C[C@H](C)/C=C/C=C(\C)[C@H]1O[C@@H](CNC(=O)[C@H]2CC[C@H](COC(=O)N3CCN(C)CC3)CC2)CC[C@@H]1C)[C@@H](C)O [Compound H22]	> 10 µM	82.229%	> 10000 nM	71.431%	> 10000 nM	> 10000 nM	> 10000 nM	5100 nM	> 10 µM	48.181%	> 10000 nM	29.113%	> 10000 nM	> 10000 nM

Source: patent US12514928B2, “Herboxidiene antibody-drug conjugates and methods of use” (Eisai R&D Management Co., Ltd., priority 2018, dated 2026)
